Measured values published in paper PMC9952136 (Antibiotics, 2023).
Like-named read-outs stand apart in the source and are kept apart here.

Key:
broiler CYP2E1 = test: Probe substrate assay of CYP2E1 activity in broiler liver microsomes; type: in vitro ADME
Experimental: Probe drugs: a volume of 0.2 mL cold acetonitrile were added into 0.05 mL microsome incubation solution, then vortexed for 2 min to extract target compounds. […] The supernatant was filtered through a 0.2 μm filter.

broiler CYP2A6 = type: in vitro ADME; conditions: microsomes
Experimental: (§1) Probe drugs: a volume of 0.2 mL cold acetonitrile were added into 0.05 mL microsome incubation solution, then vortexed for 2 min to extract target compounds. The mixture was centrifuged at 12,000 rpm for 15 min. The supernatant was filtered through a 0.2 μm filter.

[1] = in vivo, po, 6 mg/kg
Experimental: (§6) Mobile phase compositions were 0.5 mol/L H3PO4-triethylamine (pH = 2.4, phase A) and acetonitrile (phase B) (82:18, v/v) [1, 18].
(§7) SAL (Shandong Lukang, Jining, China): The LC-MS/MS assay method for SAL were introduced in the previous research [21]. The separate system of HPLC used 0.1% formic acid solution (phase A) and methanol (phase B) as mobile phase. […] Positive ion scanning mode was used; DP, CE, and CXP are 59.1 V, 65.64 V, and 12 V, respectively.
(§8) Plasma sample: Add 0.8 mL of acetonitrile to 0.2 mL of plasma to precipitate proteins. After vortexing the mixture for 5 min, centrifuge at 12,000 rpm for 10 min. Transfer the supernatant to a new 10 mL tube. The supernatant was blown dry with nitrogen at 40 °C, and the pellet was redissolved with 1 mL of methanol. The methanol reconstituted solution was filtered through a 0.2 μm filter.
(§9) PK parameters were calculated with WinNonlin software using non-compartmental settings (version 6.4; Pharsight Corporation, Mountain View, CA, USA).

P-gp [2] = test: mRNA and protein expression of P-gp in liver and small intestine of treated broilers; type: in vivo, broiler; conditions: single gavage compared with the saline group
Experimental: (§2) The relative expressions of CYP3A4, P-gp and BCRP in tissue of broiler and Caco-2 were evaluated via quantitative real-time PCR (RT–qPCR, Bio-Rad, Hercules, CA, USA). […] Relevant cells were treated as indicated and total RNA was extracted from cells and tissue using RNA isolater Total RNA Extraction Reagent (R401-01, Vazyme Biotech Co., Ltd., Nanjing, China) following the manufacturer’s protocols, then reverse-transcribed into cDNA using HiScript II Q Select RT SuperMix for Qpcr (R233-01, Vazyme Biotech Co., Ltd.). The cDNA was determined by quantitative RT-PCR using 2 × AceQ qPCR SYBR Green Master Mix (Q141-02, Vazyme Biotech Co., Ltd.) with the primers (listed in Supplementary Tables S1 and S2). All data were analyzed using the 2−ΔΔCt method.
(§3) These were then collected in a RIPA lysis buffer (P0013B, Beyotime, Shanghai, China) and incubated on a rocker with ice for 30 min. […] Proteins were transferred into a polyvinylidene fluoride (PVDF) membrane (Bio-Rad) and then incubated with the CYP3A4 Rabbit pAb (Cat#A2544, ABclonal, Wuhan, China), ABCG2 Rabbit pAb (Cat#A5661, ABclonal, Wuhan, China), P-gp Rabbit pAb (Cat#A11747, ABclonal, Wuhan, China) over night, respectively. […] The immunoreactive bands were visualized on a gel imaging system (Tanon 5200 Multi, Tanon Technology Co., Ltd., Shanghai, China), and the intensities of the immunoreactive bands were quantified using Quantity One.

CYP3A4 (broiler) = test: Probe substrate (testosterone) assay of CYP3A4 activity in broiler liver microsomes; type: in vitro ADME; conditions: chicken (broiler)
Experimental: as §1
(§4) […]. […] Except for testosterone, which was incubated for 30 min, all other probe drugs were incubated for 4 h.

in vivo = conditions: po, 6 mg/kg
Experimental: as §6, §7, §8, §9

human P-gp = tested on: human P-gp; design: method as in PMID 21573958; conditions: compared with P-gp inhibitor verapamil (Ver); cited from earlier work
BCRP [3] = test: mRNA and protein expression of BCRP in liver and small intestine of treated broilers; type: in vivo, broiler
Experimental: as §2, §3

P-gp [4] = tested on: P-gp; design: method as in PMID 30989413; conditions: cited from earlier work
CYP3A4 [5] = test: mRNA (RT-qPCR) and protein (Western blot) expression of hepatic CYP3A4 in treated broilers; type: in vivo
Experimental: as §2
These were then collected in a RIPA lysis buffer (P0013B, Beyotime, Shanghai, China) and incubated on a rocker with ice for 30 min. Cell and tissue lysates were centrifuged at 12,000× g/4 °C for 15 min and lysates were boiled at 100 °C for 5 min in 5× SDS Loading Buffer and resolved by SDS-PAGE. Proteins were transferred into a polyvinylidene fluoride (PVDF) membrane (Bio-Rad) and then incubated with the CYP3A4 Rabbit pAb (Cat#A2544, ABclonal, Wuhan, China), ABCG2 Rabbit pAb (Cat#A5661, ABclonal, Wuhan, China), P-gp Rabbit pAb (Cat#A11747, ABclonal, Wuhan, China) over night, respectively. They were then incubated with the HRP Goat Anti-Rabbit IgG (Cat#AS014, ABclonal, Wuhan, China) for 1.5 h. Immobilon Western Chemiluminescent HRP Substrate (Millipore) was used for protein detection. The immunoreactive bands were visualized on a gel imaging system (Tanon 5200 Multi, Tanon Technology Co., Ltd., Shanghai, China), and the intensities of the immunoreactive bands were quantified using Quantity One.

BCRP [6] = test: BCRP gene and protein expression in Caco-2 cells (qPCR, WB); type: cell-based, human; conditions: ENR 5 and 20 μmol/L; 12 and 24 h; concentration- and time-dependent
Experimental: as §2
(§5) These were then collected in a RIPA lysis buffer (P0013B, Beyotime, Shanghai, China) and incubated on a rocker with ice for 30 min. Cell and tissue lysates were centrifuged at 12,000× g/4 °C for 15 min and lysates were boiled at 100 °C for 5 min in 5× SDS Loading Buffer and resolved by SDS-PAGE. […] The immunoreactive bands were visualized on a gel imaging system (Tanon 5200 Multi, Tanon Technology Co., Ltd., Shanghai, China), and the intensities of the immunoreactive bands were quantified using Quantity One.

CYP3A4 [7] = test: Screening of CYP450 enzymes that metabolize SAL and ENR with positive inhibitors (KCZ) in broiler liver microsomes; type: in vitro ADME; conditions: 50 μmol/L ENR; 0.5 mg/mL broiler liver microsomes; KCZ pre-incubated 30 min at 41 °C, then 4 h
Experimental: as §1
Briefly, alpha-naphthoflavone (α-NIF, inhibitor of CYP1A2), sulfafenpyrazole (SUl, CYP2D6), sodium diethyldithiocarbamate (DIE, inhibitor of CYP2E1), omeprazole (OMP, inhibitor of CYP2C45) and ketoconazole (KCZ, inhibitor of CYP3A4) were incubated with 50 μmol/L SAL or the ENR-NADPH system, respectively. The system consisted of 0.5 mg/mL broiler liver microsomes, 0.05 mmol/L Tris-HCl buffer, and 1 mmol/L NADPH.

broiler CYP3A4 = test: Probe substrate (testosterone) assay of CYP3A4 activity in broiler liver microsomes; type: in vitro ADME
Experimental: as §1, §4

[8] = Pharmacokinetic studies of ENR and SAL in broilers (plasma, non-compartmental); conditions: for AUC(0-t) / AUC(0-inf) / Cmax / k el / MRT last / MRT inf / Tmax / half-life: AA broiler, plasma, po, 7.5 mg/kg, n=6, Mean ± SD; for AUC(0-t): AUC0-36h; for AUC(0-t) / AUC(0-inf) / Cmax / k el / MRT last / MRT inf / Tmax: broiler plasma; for AUC(0-inf): AUC0-∞; for k el: Ke; for MRT last: MRT0-36h; for MRT inf: MRT0-∞; for half-life: t1/2, broiler plasma;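 as to all read-outs here: plasma drug levels measured by HPLC or LC-MS/MS, with PK parameters obtained through non-compartmental analysis in WinNonlin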
Experimental: as §6, §7, §8, §9

P-gp [9] = test: P-gp gene and protein expression in Caco-2 cells (qPCR, WB); type: cell-based, human; conditions: ENR 5 and 20 μmol/L, SAL 0.5 and 2 μmol/L; 12 or 24 h
Experimental: as §2, §5

[10] = SAL (5 d) + ENR: SAL 60 mg/kg mixed feeding 5 days, then ENR 7.5 mg/kg gavage
[11] = SAL + ENR: ENR 7.5 mg/kg + SAL 6.0 mg/kg co-gavage
[12] = abstract, broilers, group not given

CC[C@@H](C(=O)[C@@H](C)[C@@H](O)[C@H](C)CCc1ccc(C)c(O)c1C(=O)O)[C@H]1O[C@](CC)([C@H]2CC[C@](O)(CC)[C@H](C)O2)C[C@@H]1C [LAS, lasalocid]
effect on CYP2E1 activity (broiler CYP2E1): inductive effects

CC[C@@H](C(=O)[C@@H](C)[C@@H](O)[C@H](C)[C@@H]1O[C@@H]([C@@H](CC)C(=O)O)CC[C@@H]1C)[C@H]1O[C@]2(C=C[C@@H](O)[C@]3(CC[C@@](C)([C@H]4CC[C@](O)(CC)[C@H](C)O4)O3)O2)[C@H](C)C[C@@H]1C [SAL, salinomycin]
effect on CYP2A6 activity (broiler CYP2A6): inductive effects
MRT0-48h ([1]; AA broiler): 5.53 ± 1.16 h
MRT0-∞ ([1]; AA broiler): 7.53 ± 2.39 h
AUC0-48h ([1]; AA): 218.96 ± 42.32 ng·h/mL
AUC0-∞ ([1]; AA): 264.78 ± 40.60 ng·h/mL
effect on P-gp gene expression levels in the liver and small intestine (P-gp [2]): suppress
inhibition at 30 min, 100 µmol/L (CYP3A4 (broiler); broiler, microsomes): 52%
k el (in vivo; AA broiler, Ke): 1.39e-05 s⁻¹
Tmax (in vivo; AA, Tmax): 0.42 ± 0.3 h
half-life (in vivo; AA, t1/2): 14.2 ± 3.1 h
inhibition of human P-gp (human P-gp): effectively inhibit
effect of SAL on expression of BCRP (BCRP [3]; ENR + SAL group compared with single ENR group): significantly inhibited
effect of SAL on expression of BCRP (BCRP [3]; SAL (5d) + ENR group compared with single ENR group): significantly induced
effect on P-gp in A549 cells (P-gp [4]; 5 μM SAL, 30 min and 1 h): no significant effect
effect on expression of P-gp in A549 cells (P-gp [4]; SAL treatment for 72 h): significantly induced

CCN1CCN(c2cc3c(cc2F)c(=O)c(C(=O)O)cn3C2CC2)CC1 [ENR, Enrofloxacin]
effect of ENR on mRNA and protein levels of CYP3A4 in liver (CYP3A4 [5]; ENR (5d) + SAL group contrasted with single SAL group): significantly inhibited
effect of ENR on CYP3A4 gene expression in liver (CYP3A4 [5]; ENR + SAL group contrasted with single SAL group): overexpression
effect on protein expression of CYP3A4 in liver (CYP3A4 [5]; single gavage (ENR 7.5 mg/kg or SAL 6.0 mg/kg) compared with physiological saline group): induced
expression of BCRP in Caco-2 cells (BCRP [6]): decreased
decrease of ENR metabolic rate after addition of the CYP3A4-specific inhibitor KCZ (CYP3A4 [7]): 32%
inhibition at 30 min, 100 µmol/L (CYP3A4 (broiler); probe testosterone (TS), 100 µmol/L, pre-incubated 30 min at 41 °C, broiler liver microsomes, probe testosterone, read-out: inhibition rate on CYP3A4 (TS metabolism)): 32%
effect on CYP3A4 at short pre-incubation (broiler CYP3A4; 0 and 3 min of pre-incubation): induced
dependence of CYP3A4 inhibition on pre-incubation time (broiler CYP3A4; 100 μmol/L, pre-incubated 0, 3, 5, 15, 30 min): time-dependent
dependence of CYP3A4 inhibition on concentration (broiler CYP3A4; 50, 100 and 500 μmol/L): concentration-dependent inhibitory effects
AUC(0-t) ([8]; ENR (7.5 mg/kg) gavage alone): 12800 ± 3990 ng·h/mL
AUC(0-t) [8, 10]: 15300 ± 1290 ng·h/mL
AUC(0-t) [8, 11]: 16700 ± 1290 ng·h/mL
AUC(0-inf) ([8]; ENR (7.5 mg/kg) gavage alone): 13500 ± 4080 ng·h/mL
AUC(0-inf) [8, 10]: 16000 ± 1450 ng·h/mL
AUC(0-inf) [8, 11]: 17500 ± 1450 ng·h/mL
Cmax ([8]; ENR (7.5 mg/kg) gavage alone): 1490 ± 540 ng/mL
Cmax [8, 10]: 1600 ± 160 ng/mL
Cmax [8, 11]: 1480 ± 160 ng/mL
k el ([8]; ENR (7.5 mg/kg) gavage alone): 1.94e-05 s⁻¹
k el [8, 10]: 2.5e-05 s⁻¹
k el [8, 11]: 2.5e-05 s⁻¹
MRT last ([8]; ENR (7.5 mg/kg) gavage alone): 8.29 ± 1.03 h
MRT last [8, 10]: 8.35 ± 0.52 h
MRT last [8, 11]: 9.06 ± 0.52 h
MRT inf ([8]; ENR (7.5 mg/kg) gavage alone): 10.8 ± 1.76 h
MRT inf [8, 10]: 10.1 ± 0.9 h
MRT inf [8, 11]: 10.6 ± 0.9 h
Tmax ([8]; ENR (7.5 mg/kg) gavage alone): 1.5 ± 0.55 h
Tmax [8, 10]: 2.17 ± 1.03 h
Tmax [8, 11]: 2.67 ± 1.03 h
half-life ([8]; ENR (7.5 mg/kg) gavage alone): 7.45 ± 1.71 h
half-life [8, 10]: 8.13 ± 0.86 h
half-life [8, 11]: 8.65 ± 0.54 h
increase of area under the curve by SAL [8, 12]: 1.3 times
increase of elimination half-life by SAL [8, 12]: 1.2 times
gene and protein expressions of P-gp in Caco-2 cells (P-gp [9]): significantly decreased
